{"source": "patent US8215314B2", "about": "“Photochemical tissue bonding” (The General Hospital Corporation, priority 2000, dated 2012)", "key": {"[1]": {"system": "partial thickness skin grafts", "assay": "Skin graft adherence after PTB, ex vivo (tensiometer)", "set-up": "species or system mini pigs", "settings": "RB concentration 0.1% (w/v) among 0, 0.01, 0.1, 1%", "excerpt": "To test the ability of PTB to quickly and effectively bond skin grafts to a wound site, an ex vivo model utilizing mini pigs was developed. The use of porcine models in wound healing is well known by those skilled in the art. The similarities between porcine wound healing and that of humans enable one to extrapolate the therapeutic results obtained in a porcine model system to a therapeutic result in humans.\nPartial thickness skin grafts of approximately 0.020 inch (corresponding to the thick partial-thickness grafts used in clinical situation) were harvested from mini pigs (2 to 7 months old, weight 15 to 43 kgs) after euthanasia. The grafts were temporarily stored by wrapping the graft around gauze, which was soaked in phosphate buffered saline (PBS). […]\nThe grafts were irradiated using a continuous-wave (CW) argon-ion laser (Innova 100; Coherent, Palo Alto, Calif.) at 514.5 nm. […] The irradiance of laser applied was 0.56 and 1.68 W/cm^2 while the dose-dependent response of the laser fluence from 126 to 504 J/cm^2 was determined. […]\nFollowing the irradiation, the adherence of the skin grafts was tested utilizing a tensiometer (Chartillon) coupled to a force transducer (DFA2, Ametek). The applied force versus the displacement of the force plate was acquired through the transducer and recorded by computer software (Labview 4.0, National Instrument). […]"}, "[2]": {"system": "cornea", "assay": "Examination of eyes for thermal damage after PTB (tissue shrinkage, deformation)", "set-up": "species or system rabbit", "settings": "RB PTB", "excerpt": "Post-treatment, the eyes were examined for the presence of thermal damage. Tissue shrinkage and deformation around the wound site were taken as signs of thermal damage. Thermal damage to the cornea was not observed at the lowest irradiance tested (1.27 W/cm2). […] Thermal effects produced using high irradiances may produce collagen contraction resulting in distortion of the patient's vision."}, "[3]": {"system": "collagen gel implant on rat latissimus dorsi muscle flap", "assay": "Adherence of collagen-based esophagus implant to host muscle flap after PTB, ex vivo", "settings": "for adherence of collagen implant on muscle flap: 0.1% RB, 514 nm", "experimental": "An ex vivo experimental system was developed to investigate the effect of PTB on the bonding of an engineered, collagen-based, esophagus implant to host muscle flap tissue without the need for silicon tubing.\nFIG. 14 provides an overview of the experimental methods. Esophageal keratinocytes were seeded on uncontracted collagen gel (ICN Biomedicals) for about one week until confluence was reached. A 1×1 cm piece of seeded collagen gel was removed (implant) from the culture dish and a suture loop was laced through at its edge. An equivalently-sized section of rat latissimus dorsi muscle flap was secured onto a flat plastic surface with sutures. Rose bengal (RB) at 0.1% (w/v), a photosensitizer having an absorption maximum and absorption coefficient of 550 nm and 33,000 dm^3/mo/cm at 514 nm, respectively, was applied to the collagen side of the implant and the surface of the muscle flap and incubated for about two minutes. The esophagus implant and the muscle flap were approximated with the dye-treated surfaces facing each other by gently pressing over the esophagus implants without damaging the keratinocyte layer. Excess dye was removed by aspiration and blotting. […]\nFollowing irradiation, the adherence of the collagen-based esophageal implant to the host muscle flap was tested for the 50 J/cm^2 sample, 100 J/cm^2 sample, and the three controls, using a tensiometer (Chartillon) coupled to a force transducer (DFA2, Ametek). The adherence (N/cm^2; N=force applied, cm^2=area of collagen implant) of the collagen implant on the muscle flap was determined from the force-deflection curve, generated by plotting the amount of peeling force applied to the collagen implant to the force plate displacement level of the force transducer. It was observe that the mean adherence measurements determined for the negative, RB, and laser controls were 0.05, 0.06, and 0.07 N/cm^2, respectively (FIG. 15). In contrast, the adherence measurements determined for the 50 and 100 J/cm^2 composite samples were 0.15 and 0.13 N/cm^2, respectively (FIG. 15)."}}, "data": [{"compound": "O=C([O-])c1c(Cl)c(Cl)c(Cl)c(Cl)c1-c1c2cc(I)c(=O)c(I)c-2oc2c(I)c([O-])c(I)cc12.[Na+].[Na+]", "note": "[Rose Bengal]", "values": [{"measurement": "skin graft adherence levels", "setting": "[1]", "result": "optimal increase"}, {"measurement": "thermal damage to the cornea", "setting": "[2]; 2.55 W/cm2", "result": "occasionally"}, {"measurement": "thermal damage to the cornea", "setting": "[2]; 762 to 1524 J/cm2 at 3.82 W/cm2", "result": "could be observed"}, {"measurement": "thermal damage to the cornea", "setting": "[2]; lowest irradiance 1.27 W/cm2", "result": "not observed"}, {"measurement": "adherence of collagen implant on muscle flap", "setting": "[3]; 0.25 W/cm^2, 50 J/cm^2", "result": 0.15, "unit": "N/cm^2"}, {"measurement": "adherence of collagen implant on muscle flap", "setting": "[3]; 0.25 W/cm^2, 100 J/cm^2", "result": 0.13, "unit": "N/cm^2"}, {"measurement": "mean adherence of collagen implant on muscle flap", "setting": "[3]; RB control: 0.1% RB treated, nonirradiated", "result": 0.06, "unit": "N/cm^2"}]}]}
